According to ChEMBL document CHEMBL1152493, “CoMFA and docking studies of 2-phenylindole derivatives with anticancer activity” (Eur J Med Chem, 2009):

Tested on: MDA-MB-231
Assay: Cytotoxicity against human MDA-MB-231 cells
Type: functional, cell-based

Q: Which IC50 (read-out: IC50) does the source give for CCC(C)c1ccc2[nH]c(-c3ccc(OC)cc3)c(C=O)c2c1 (stereo unspecified) here?
A: Its IC50 is 72 nM.

Q: What about the IC50 (read-out: pIC50 (converted)) of the same compound?
A: Its IC50 is 71.9 nM.

Q: What does the source list for COc1ccc(-c2[nH]c3cc(OC)c(OC)cc3c2C=O)cc1?
A: IC50 (read-out: IC50): 220 nM; IC50 (read-out: pIC50 (converted)): 220 nM

Q: Which IC50 (read-out: IC50) does the source give for COc1ccc2c(C=O)c(-c3ccccc3)[nH]c2c1 here?
A: The IC50 was 240 nM.

Q: And the IC50 (read-out: pIC50 (converted))?
A: The IC50 was 240 nM.
